Test results as given in patent publication US20130116554A1, “X-RAY IMAGING AT LOW CONTRAST AGENT CONCENTRATIONS AND/OR LOW DOSE RADIATION” (priority 2010, published 2013).

Legend:
[1] = Abdominal contrast enhanced CT in minipig, arterial phase, SNR of ROI; type: in vivo; conditions: for ASiR 60% [SNR] / Veo [SNR]: 80 kVp
Description: (§1) An anaesthetized minipig (abdominal maximum and minimum diameters 36 cm and 20 cm, respectively) was imaged 3 times (imaging protocols 1, 2 and 3, Tables 3 and 4) on a Discovery CT 750 HD. Visipaque (60 mL) was injected at a rate of 2 mL/s into a jugular vein, followed by a 20 mL saline flush at the same injection rate. There was at least a 2 day washout period between each scanning session.
(§2) Protocol 1 with a Visipaque concentration of 320 mg l/mL and 120 kVp tube voltage represents current standard of care (SoC) imaging for humans. Automated tube current modulation (≦500 mA) was used with a noise index level of 30 and a tube rotation time of 0.7 s. Post-contrast CT images were acquired during the arterial phase, the portal venous phase, the venous phase and the late phase. Image reconstruction was done by (1) FBP, (2) ASiR 60% and (3) Veo. Pixel size was 0.703 mm×0.703 mm×0.625 mm.
(§3) Iodine contrast enhancement was assessed by measuring the signal-to-noise ratio (SNR) of circular regions of interest (ROI), see Tables 3 and 4. The SNR is calculated as ratio of mean ROI intensity in HU and standard deviation (SD). ROIs were placed in aorta and muscle (quadratus lumborum) in arterial phase images and in liver in venous phase images.

[2] = Abdominal contrast enhanced CT in minipig, venous phase, SNR of ROI; type: in vivo; conditions: liver; for ASiR 60% [SNR] / Veo [SNR]: 80 kVp
Description: as §1, §2, §3

[3] = protocol 1: Visipaque 320 mg I/ml, 120 kVp, CTDIvol 6.7 mGy
[4] = protocol 2: Visipaque 170 mg I/ml, CTDIvol 3.2 mGy
[5] = protocol 3: Visipaque 120 mg I/ml, CTDIvol 6.4 mGy

CC(=O)N(CC(O)CN(C(C)=O)c1c(I)c(C(=O)NCC(O)CO)c(I)c(C(=O)NCC(O)CO)c1I)c1c(I)c(C(=O)NCC(O)CO)c(I)c(C(=O)NCC(O)CO)c1I (stereo not shown) [Visipaque, iodixanol]
FBP [SNR] [1, 3]: 8.3
ASiR 60% [SNR] [1, 4]: 7.4
Veo [SNR] [1, 4]: 12.8
ASiR 60% [SNR] [1, 5]: 8.5
Veo [SNR] [1, 5]: 14.2
FBP [SNR] [2, 3]: 4.3
ASiR 60% [SNR] [2, 4]: 3.5
Veo [SNR] [2, 4]: 8.1
ASiR 60% [SNR] [2, 5]: 4.7
Veo [SNR] [2, 5]: 8.1
